Laboratory results as given in patent US20200361908A1, “CRYSTALS OF ANILINE PYRIMIDINE COMPOUND SERVING AS EGFR INHIBITOR” (CHIA TAI TIANQING PHARMACEUTICAL GROUP CO., LTD., priority 2016, published 2020).

Experiments:
[1] = Stability test of crystal A at room temperature, kept away from light; assay type: physicochemical
Protocol: (§1) The stability of the crystal according to the present application may be detected by placing the crystal under a condition with a high temperature, a high humidity, or a lighting condition. The high temperature condition may be 40° C. to 60° C., the high humidity condition may be a relative humidity of 75% to 92.5% RH, and the lighting condition may be 5000 Lux. The crystal stability may be evaluated by investigating several parameters, such as the content of the crystal, the total content of impurities, or the water content, of a sample, and comprehensively evaluating these parameters according to the properties of the product.
The crystal A obtained by Method 1 of Example 3 was kept away from light at room temperature, and sampled for detection in months 1.5, 2, 5, and 6, respectively.

[2] = Stability test of crystal B under high temperature, high humidity or illumination; assay type: physicochemical
Protocol: as §1
The crystal B obtained by Method 5 of Example 4 was kept respectively in an environment at a high temperature of 60° C., a high humidity of 75% RH, a high humidity of 92.5% RH, or an illumination intensity of 5000 Lux, and sampled for detection on days 5, 10, and 30, respectively.

C=CC(=O)Nc1cc(Nc2nccc(-n3c(=O)n(C)c4ccccc43)n2)c(OC)cc1N(C)CCN(C)C [crystal A]
Characters ([1]; Initial Result): off-white
Content (%) ([1]; Initial Result): 100.3%
Total Impurity (%) ([1]; Initial Result): 1.11%
Characters ([1]; Month 1.5): off-white
Content (%) ([1]; Month 1.5): 100.5%
Total Impurity (%) ([1]; Month 1.5): 1.52%
Characters ([1]; Month 2): off-white
Total Impurity (%) ([1]; Month 2): 1.23%
Characters ([1]; Month 5): off-white
Content (%) ([1]; Month 5): 100%
Total Impurity (%) ([1]; Month 5): 1.5%
Characters ([1]; Month 6): off-white
Content (%) ([1]; Month 6): 99.8%
Total Impurity (%) ([1]; Month 6): 1.37%

C=CC(=O)Nc1cc(Nc2nccc(-n3c(=O)n(C)c4ccccc43)n2)c(OC)cc1N(C)CCN(C)C [crystal B]
Characters ([2]; Day 0): white
Content (%) ([2]; Day 0): 99.3%
Total Impurity (%) ([2]; Day 0): 0.12%
Characters ([2]; High Humidity 75% RH, Day 5): white
Content (%) ([2]; High Humidity 75% RH, Day 5): 99.3%
Characters ([2]; High Humidity 75% RH, Day 10): white
Content (%) ([2]; High Humidity 75% RH, Day 10): 103.6%
Total Impurity (%) ([2]; High Humidity 75% RH, Day 10): 0.07%
Characters ([2]; High Humidity 75% RH, Day 30): off-white
Content (%) ([2]; High Humidity 75% RH, Day 30): 106.4%
Total Impurity (%) ([2]; High Humidity 75% RH, Day 30): 0.06%
Characters ([2]; High Humidity 92.5% RH, Day 5): white
Content (%) ([2]; High Humidity 92.5% RH, Day 5): 98.4%
Characters ([2]; High Humidity 92.5% RH, Day 10): white
Content (%) ([2]; High Humidity 92.5% RH, Day 10): 105.2%
Total Impurity (%) ([2]; High Humidity 92.5% RH, Day 10): 0.06%
Characters ([2]; High Humidity 92.5% RH, Day 30): off-white
Content (%) ([2]; High Humidity 92.5% RH, Day 30): 103.9%
Total Impurity (%) ([2]; High Humidity 92.5% RH, Day 30): 0.07%
Characters ([2]; High Temp. 60° C., Day 5): white
Content (%) ([2]; High Temp. 60° C., Day 5): 100.5%
Characters ([2]; High Temp. 60° C., Day 10): white
Content (%) ([2]; High Temp. 60° C., Day 10): 104.2%
Total Impurity (%) ([2]; High Temp. 60° C., Day 10): 0.09%
Characters ([2]; High Temp. 60° C., Day 30): off-white
Content (%) ([2]; High Temp. 60° C., Day 30): 107.9%
Total Impurity (%) ([2]; High Temp. 60° C., Day 30): 0.19%
Characters ([2]; Illumination 5000 Lux, Day 5): white
Content (%) ([2]; Illumination 5000 Lux, Day 5): 99.4%
Total Impurity (%) ([2]; Illumination 5000 Lux, Day 5): 0.06%
Characters ([2]; Illumination 5000 Lux, Day 10): white
Content (%) ([2]; Illumination 5000 Lux, Day 10): 106.9%
Total Impurity (%) ([2]; Illumination 5000 Lux, Day 10): 0.14%
Characters ([2]; Illumination 5000 Lux, Day 30): off-white
Content (%) ([2]; Illumination 5000 Lux, Day 30): 107.9%
Total Impurity (%) ([2]; Illumination 5000 Lux, Day 30): 0.37%
